From ChEMBL document CHEMBL3507680, “University of Dundee, Gates Library screen for HepG2 cell viability”

Assay: Human HepG2 cell viability assay in 384 well format
Assay type: toxicity, cell-based
Set-up: dose 125 nL, time 70.5 hour; concentration not given beside the values
Settings: HepG2 cells, read-out: Inhibition

| SMILES | cytotoxicity at 70.5 h [%] |
| --- | --- |
| NC(=O)N1CCCN(CCc2nc(-c3cccc(Cl)c3)no2)CC1 | 4.65 |
| Cc1nsc(N2CCCN(c3ccc(C#N)cn3)CC2)n1 | -0.603 |
| C[S+]([O-])CCCNCc1cc(F)ccc1Br (stereo not given) | 0.821 |
| CCC(C)(NCc1nnc(C(C)(C)C)o1)c1nccs1 (stereo not given) | -0.157 |
| COCCN1CC[C@]2(CN(C(=O)c3ccc[nH]3)C[C@H]2C)C1=O | -7.41 |
| CCOCC1CN(CC2CCC2)Cc2nnn(CC3CC3)c21 (stereo not given) | -0.482 |
| O=C(NC1CC1)c1cc2c(s1)CCN2C(=O)C1CC1 | -7.29 |
| Cn1cc(-c2ncnc3c2CCN(C(=O)c2cscn2)CC3)cn1 | 22.4 |
| CCS(=O)(=O)N1Cc2nccn2CC(Cn2cccn2)C1 (stereo not given) | 1.18 |
| O=C(Nc1ccccc1)N1CCc2nc(C(=O)N3CCCC3)sc2CC1 | -2.49 |
| NC(=O)c1nc2c(s1)CCN(C(=O)Nc1cccc(Cl)c1)CC2 | 7.06 |
| OCc1nnc2n1CCN(c1cnccn1)C2 | -1.17 |
| CN1Cc2ccccc2CC2(CCN(Cc3nccn3C)CC2)C1=O | -3.31 |
| CCC1=NC2(CCC(C(=O)Nc3ccc(C)nc3)CC2)C(=O)N1C (stereo not given) | -2.35 |
| CCC1=NC2(CCC(C(=O)Nc3ccc(F)cc3)CC2)C(=O)N1C (stereo not given) | -5.04 |
| CC(C)n1nc(CN2CCCC2=O)c2c1CN(C(=O)c1ccno1)C2 | -1.71 |
| Cc1ccc(CN2CCO[C@@H]3[C@@H](OCc4cccnc4)CC[C@@H]32)o1 | -4.63 |
| CC(C)O[C@@H]1CC[C@H]2[C@H]1OCCN2C(=O)c1nn(C)c2ccccc12 | 1.07 |
| CCS(=O)(=O)N1C[C@H]2CN(CC3CC3)C(=O)[C@H]2C1 | -0.251 |
| O=C1[C@H]2CN(S(=O)(=O)C3CC3)C[C@H]2CN1CC1CC1 | 0.281 |
| CC(C)NC(=O)C1CN(C(=O)c2ccco2)CC12CCOCC2 (stereo not given) | -6.64 |
| Cc1occc1C(=O)N1CC[C@@H](N2CCOCC2)[C@@H]1Cc1ccccc1 | -7.85 |
| O=C1NC2(CCN(Cc3cccnc3)CC2)CC1c1ccncc1 (stereo not given) | -10.6 |
| CCOCC1CC2(CCN(C(=O)c3ccccc3F)CC2)CO1 (stereo not given) | 0.964 |
| O=C(NCC1CC1)C1=NOC2(CCN(S(=O)(=O)c3cccs3)C2)C1 (stereo not given) | -10 |

| SMILES | cytotoxicity at 70.5 h [%] |
| --- | --- |
| CCOCC1CC2(CCN(Cc3ccccn3)CC2)CO1 (stereo not given) | -3.81 |
| O=C(c1ccccc1)N1CCC2(CC1)CNc1c(F)cccc12 | -7.65 |
| O=C(NCC(F)(F)F)C1=NOC2(CCCNC2)C1 (stereo not given) | 0.364 |
| CCS(=O)(=O)N1CCc2c(CN3CCOCC3)cncc2C1 | -4.84 |
| c1csc(CN2CCC3(CCOCC3COCC3CC3)CC2)n1 (stereo not given) | -3.9 |
| Cc1ccc(CN2CCC3(CC2)COCCN3S(C)(=O)=O)o1 | -4.45 |
| Fc1cnc(N2C[C@@H]3C[C@@H](c4nc(C5CC5)cs4)O[C@@H]3C2)nc1 | -1.67 |
| O=S(=O)(C1CC1)N1CCCn2cnc(COc3cccnc3)c2C1 | -2.62 |
| Cn1ccnc1CN1CCC2(CC1)Cc1ccccc1CNC2=O | -3.2 |
| CC(C)NC(=O)N1CCc2ncnc(-c3ccncc3)c2CC1 | -3.38 |
| Cc1oncc1C(=O)N1CC[C@@H]2[C@@H]1CC(=O)N2Cc1cccnc1 | -5.14 |
| CC(C)N(C)Cc1nnc2n1CCCN(c1ncccn1)C2 | -2.54 |
| Cc1ccc(N2CC[C@H]3O[C@@H](C(=O)N4CCCCO4)CC[C@H]32)nn1 | -4.7 |
| Cc1ccc(N2CC[C@H]3O[C@@H](C(=O)N4CCCO4)CC[C@H]32)nn1 | 0.0406 |
| CN(C)C(=O)N1CCO[C@@H]2CC(COCc3cccnc3)C[C@H]21 (stereo not given in full) | -1.44 |
| Cn1cccc1C(=O)N1CCC2(CCN2c2ncccn2)C1 (stereo not given) | -3.82 |
| O=S(=O)(C1CC1)N1CCC2(CCCN(c3ncccn3)C2)C1 (stereo not given) | 18 |
| CN(C)[C@@H]1CN(C(=O)Cc2ccsc2)[C@@H]2CCCO[C@H]12 | 16.1 |
| CN(C)C(=O)CN1CCOCC2(C1)CN(c1ncccn1)CCO2 (stereo not given) | 16.4 |
| CN(C)[C@@H]1CN(C(=O)Cc2ccc(F)cc2)[C@@H]2CCCO[C@H]12 | 18.3 |
| Cc1noc(C)c1C(=O)N1CCOC2(COCCN(C(C)C)C2)C1 (stereo not given) | -1.02 |
| COCCN1CCc2ncnc(OC(C)C)c2CC1 | -9.41 |
| O=C(Cc1ccsc1)N1Cc2nc(CN3CCCCC3)oc2C1 | -4.42 |
| c1cnc(N2CCO[C@H]3[C@H](OCC4CCOCC4)CC[C@@H]32)nc1 | -10.9 |
| Cc1nocc1C(=O)N1CCOC2(COCCN(C(C)C)C2)C1 (stereo not given) | -5.11 |

| SMILES | cytotoxicity at 70.5 h [%] |
| --- | --- |
| CC(C)NC(=O)[C@@]12CCO[C@@H]1CCN(Cc1ccc3c(c1)OCO3)C2 | 1.85 |
| O=C(NC1CC1)[C@@]12CCO[C@@H]1CCN(Cc1ccc3c(c1)OCO3)C2 | 2.54 |
| O=C1CCCN1Cc1nnc2n1CCN(Cc1ccco1)CC2 | -1.59 |
| O=C(c1cscn1)N1CC[C@@H]2[C@@H]1CCN2CC1CCOCC1 | -1.87 |
| CC(C)CCN1C[C@H]2C[C@H](C(=O)N3CCCC3)[C@@H](C1)O2 | -5.2 |
| c1cnc(NCc2nnn3c2CN(CC2CC2)CCC3)nc1 | -4.25 |
| CCOC1COC2(CCN(c3ccccn3)CC2)C1 (stereo not given) | -0.266 |
| CN(C)S(=O)(=O)N1CC[C@]2(C[C@H](Oc3ncccc3F)CO2)C1 | 2.84 |
| CN(C)S(=O)(=O)N1CC[C@]2(C[C@H](Oc3cccnc3)CO2)C1 | -5.74 |
| O=C1CO[C@@H]2CN(Cc3cccs3)C[C@H]2N1CC1CC1 | -9.66 |
| O=C(c1ccco1)N1C[C@H]2CCCN(CC3CCOCC3)[C@H]2C1 | -7.8 |
| Cc1nc(CN2CCO[C@@H]3CN(C(=O)NC(C)C)CC[C@@H]3C2)cs1 | -6.02 |
| COc1ccc(CN2CCC[C@@H]3CN(C(=O)c4ccco4)C[C@@H]32)cc1 | -10.9 |
| Cc1ccc(C(=O)N2CCC3(CC2)COC(COc2ccccn2)C3)o1 (stereo not given) | -4.24 |
| CO[C@@H]1CCN(Cc2c(C)noc2C)[C@@H]2CN(Cc3ccco3)C[C@@H]21 | -2.94 |
| COCC1CN(c2ccc(C)nn2)Cc2cnn(CC3CCOCC3)c21 (stereo not given) | -6.71 |
| COCC1CN(c2ncc(F)cn2)Cc2cnn(C)c21 (stereo not given) | -4.56 |
| Cc1cccc(CN2CCO[C@@H]3CC(COc4ccccn4)C[C@H]32)n1 (stereo not given in full) | 5.17 |
| Cc1nc(CN2CCC3(CC2)CC(c2cccnc2)C(=O)N3C)cs1 (stereo not given) | -3.5 |
| c1ccc(CN2CCc3nnc(CN4CCCCC4)n3CC2)nc1 | 3.32 |
| CN(C)[C@@H]1CN(Cc2ccoc2)C[C@@H]2CCCO[C@@H]21 | -8.48 |
| c1csc(CN2CCOCC3(CCN(C4CCOCC4)C3)C2)n1 (stereo not given) | 0.591 |
| Cc1cccc(CN2C[C@@H]3COC[C@]3(CNC(=O)N3CCCC3)C2)n1 | 0.0201 |
| CN(C)CC(=O)N1CCC2(CC1)COC(COc1ccccn1)C2 (stereo not given) | -7.86 |
| CO[C@@H]1CCN(Cc2c(C)noc2C)[C@@H]2CN(Cc3cccnc3)C[C@@H]21 | -5.86 |
